The target in the assay is wild-type Epidermal Growth Factor Receptor (EGFR) (Homo sapiens (Human), UniProt P00533). In words: WT-EGFR Kinase Assay (TR-FRET, 2 mM ATP). It is filed as biochemical. The following applies: EGFR Wildtyp 2 mM ATP IC50 [mol/l] (median), median or individual measurements. An excerpt:
Inhibitory activity of compounds of the present invention against wild-type Epidermal Growth Factor Receptor (EGFR) was quantified employing the TR-FRET based EGFR assay as described in the following paragraphs.
Recombinant fusion protein of N-terminal Glutathion-S-Transferase (GST) and a fragment of human EGFR (amino acids R669 to A1210), expressed in Sf9 insect cells and purified via affinity chromatography using Glutathion Sepharose as described above, was used as kinase. As substrate for the kinase reaction the biotinylated peptide biotin-Ahx-[…] (C-terminus in amide form) was used which can be purchased e.g. form the company Biosynthan GmbH (Berlin-Buch, Germany).
For the assay 50 nl of a 100 fold concentrated solution of the test compound in DMSO was pipetted into either a black low volume 384 well microtiter plate or a black 1536 well microtiter plate (both Greiner Bio-One, Frickenhausen, Germany), 2 μL of a solution of EGFR in aqueous assay buffer [50 mM Hepes pH 7.0, 10 mM MgCl2, 1 mM dithiothreitol, 0.5 mM EGTA, 0.3 mM activated sodium ortho-vanadate, 0.005% (w/v) bovine serum albumin, 0.005% (v/v) Tween-20] were added and the mixture was incubated for 15 min at 22° C. to allow pre-binding of the test compounds to the enzyme before the start of the kinase reaction. […] The concentration of EGFR was adjusted depending of the activity of the enzyme lot and was chosen appropriate to have the assay in the linear range, typical concentration was […]. The reaction was stopped by the addition of 3 μL of a solution of HTRF detection reagents (83.3 nM streptavidine-XL665 [Cisbio Bioassays, Codolet, France] and 1.67 nM PT66-Tb-Cryptate, a terbium-cryptate labelled anti-phospho-tyrosine antibody from Cisbio Bioassays [instead of the PT66-Tb-cryptate PT66-Eu-Chelate from Perkin Elmer can also be used]) in an aqueous EDTA-solution (133.3 mM EDTA, 0.2% (w/v) bovine serum albumin in 50 mM HEPES pH 7.5).
The resulting mixture was incubated 1 h at 22° C. to allow the binding of the biotinylated phosphorylated peptide to the streptavidine-XL665 and the PT66-Tb-Cryptate. Subsequently the amount of phosphorylated substrate was evaluated by measurement of the resonance energy transfer from the PT66-Tb-Cryptate to the streptavidine-XL665. Therefore, the fluorescence emissions at 620 nm and 665 nm after excitation at 337 nm were measured in a HTRF reader, e.g. a Pherastar (BMG Labtechnologies, Offenburg, Germany) or a Viewlux (Perkin-Elmer). The ratio of the emissions at 665 nm and at 622 nm was taken as the measure for the amount of phosphorylated substrate.
A general note: Time-resolved FRET reads energy transfer from a long-lived donor to a nearby acceptor.
wild-type Epidermal Growth Factor Receptor (EGFR), sequence (P00533 669-1210): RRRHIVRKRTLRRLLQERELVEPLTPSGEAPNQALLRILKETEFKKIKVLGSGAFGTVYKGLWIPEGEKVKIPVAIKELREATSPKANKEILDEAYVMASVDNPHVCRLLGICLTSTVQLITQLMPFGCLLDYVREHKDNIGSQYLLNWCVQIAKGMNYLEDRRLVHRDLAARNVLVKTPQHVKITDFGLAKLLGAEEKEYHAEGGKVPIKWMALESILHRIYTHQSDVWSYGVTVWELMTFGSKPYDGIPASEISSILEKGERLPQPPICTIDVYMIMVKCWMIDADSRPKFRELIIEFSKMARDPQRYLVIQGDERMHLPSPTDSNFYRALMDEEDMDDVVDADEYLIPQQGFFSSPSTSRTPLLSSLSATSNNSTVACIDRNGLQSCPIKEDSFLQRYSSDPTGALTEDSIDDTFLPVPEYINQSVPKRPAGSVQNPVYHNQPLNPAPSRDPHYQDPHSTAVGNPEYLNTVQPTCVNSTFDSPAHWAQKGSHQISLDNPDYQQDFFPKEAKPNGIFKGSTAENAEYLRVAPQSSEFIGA
Turning to `CN1CCc2[nH]c(-c3ccnc(NC(=O)C(CC(F)F)c4ccc(F)cc4)c3)c(-c3ccccc3)c2C1=O` (racemic) [Example 002, 4,4-difluoro-2-(4-fluorophenyl)-N-[4-(5-methyl-4-oxo-3-phenyl-4,5,6,7-tetrahydro-1H-pyrrolo[3,2-c]pyridin-2-yl)pyridin-2-yl]butanamide], the IC50 is greater than 20 µM.
To `Cn1ccc2[nH]c(-c3ccnc(NC(=O)C(CC(F)F)c4ccc(F)cc4)c3)c(-c3ccccc3)c2c1=O` (racemic) [Example 006, 4,4-difluoro-2-(4-fluorophenyl)-N-[4-(5-methyl-4-oxo-3-phenyl-4,5-dihydro-1H-pyrrolo[3,2-c]pyridin-2-yl)pyridin-2-yl]butanamide] belongs greater than 20 µM.
The same measure for `CN1CCc2[nH]c(-c3ccnc(NC(=O)C(CC(F)F)c4ccc(F)cc4)c3)c(-c3cccnc3)c2C1=O` (racemic) [Example 009, 4,4-difluoro-2-(4-fluorophenyl)-N-{4-[5-methyl-4-oxo-3-(pyridin-3-yl)-4,5,6,7-tetrahydro-1H-pyrrolo[3,2-c]pyridin-2-yl]pyridin-2-yl}butanamide]: greater than 20 µM; for `CC(C(=O)Nc1cc(-c2[nH]c3c(CC(F)(F)F)cn(C)c(=O)c3c2-c2ccccc2)ccn1)c1ccc(F)cc1` (racemic) [Example 014, 2-(4-fluorophenyl)-N-{4-[5-methyl-4-oxo-3-phenyl-7-(2,2,2-trifluoroethyl)-4,5-dihydro-1H-pyrrolo[3,2-c]pyridin-2-yl]pyridin-2-yl}propanamide]: greater than 20 µM.
The same measure for `Cn1cc(CC(F)(F)F)c2[nH]c(-c3ccnc(NC(=O)C(CC(F)F)c4ccc(F)cc4)c3)c(-c3ccccc3)c2c1=O` (racemic) [Example 018, 4,4-difluoro-2-(4-fluorophenyl)-N-{4-[5-methyl-4-oxo-3-phenyl-7-(2,2,2-trifluoroethyl)-4,5-dihydro-1H-pyrrolo[3,2-c]pyridin-2-yl]pyridin-2-yl}butanamide]: greater than 20 µM; for `CC(C(=O)Nc1cc(-c2[nH]c3c(CC(F)(F)F)cn(C)c(=O)c3c2-c2ccc(F)cc2)ccn1)c1ccc(F)cc1` (racemic) [Example 022, 2-(4-fluorophenyl)-N-{4-[3-(4-fluorophenyl)-5-methyl-4-oxo-7-(2,2,2-trifluoroethyl)-4,5-dihydro-1H-pyrrolo[3,2-c]pyridin-2-yl]pyridin-2-yl}propanamide]: greater than 20 µM; for `Cn1cc(CC(F)(F)F)c2[nH]c(-c3ccnc(NC(=O)C(CC(F)F)c4ccc(F)cc4)c3)c(-c3ccc(F)cc3)c2c1=O` (racemic) [Example 026, 4,4-difluoro-2-(4-fluorophenyl)-N-{4-[3-(4-fluorophenyl)-5-methyl-4-oxo-7-(2,2,2-trifluoroethyl)-4,5-dihydro-1H-pyrrolo[3,2-c]pyridin-2-yl]pyridin-2-yl}butanamide]: greater than 20 µM.
`Cc1cn(C)c(=O)c2c(-c3ccc(F)cc3)c(-c3ccnc(NC(=O)C(C)c4ccc(F)cc4)c3)[nH]c12` (racemic) [Example 030, 2-(4-fluorophenyl)-N-{4-[3-(4-fluorophenyl)-5,7-dimethyl-4-oxo-4,5-dihydro-1H-pyrrolo[3,2-c]pyridin-2-yl]pyridin-2-yl}propanamide] showed an IC50 greater than 20 µM.
In turn, `Cc1cn(C)c(=O)c2c(-c3ccc(F)cc3)c(-c3ccnc(NC(=O)C(CC(F)F)c4ccc(F)cc4)c3)[nH]c12` (racemic) [Example 034, 4,4-difluoro-2-(4-fluorophenyl)-N-{4-[3-(4-fluorophenyl)-5,7-dimethyl-4-oxo-4,5-dihydro-1H-pyrrolo[3,2-c]pyridin-2-yl]pyridin-2-yl}butanamide] gave an IC50 greater than 20 µM.
To `Cc1cn(C)c(=O)c2c(-c3ccccc3)c(-c3ccnc(NC(=O)C(C)c4ccc(F)cc4)c3)[nH]c12` (racemic) [Example 038, N-[4-(5,7-dimethyl-4-oxo-3-phenyl-4,5-dihydro-1H-pyrrolo[3,2-c]pyridin-2-yl)pyridin-2-yl]-2-(4-fluorophenyl)propanamide] belongs greater than 20 µM; to `Cc1cn(C)c(=O)c2c(-c3ccccc3)c(-c3ccnc(NC(=O)C(CC(F)F)c4ccc(F)cc4)c3)[nH]c12` (racemic) [Example 040, N-[4-(5,7-dimethyl-4-oxo-3-phenyl-4,5-dihydro-1H-pyrrolo[3,2-c]pyridin-2-yl)pyridin-2-yl]-4,4-difluoro-2-(4-fluorophenyl)butanamide], greater than 20 µM.
With `CC1(C)CNC(=O)c2c1[nH]c(-c1ccnc(NC(=O)C(CC(F)F)c3ccc(F)cc3)c1)c2-c1ccccc1` (racemic) [Example 043, N-[4-(7,7-dimethyl-4-oxo-3-phenyl-4,5,6,7-tetrahydro-1H-pyrrolo[3,2-c]pyridin-2-yl)pyridin-2-yl]-4,4-difluoro-2-(4-fluorophenyl)butanamide], the IC50 is greater than 20 µM.
In turn, `CC(C(=O)Nc1cc(-c2[nH]c3c(c2-c2ccccc2)C(=O)NCC3(C)C)ccn1)c1ccc(F)cc1` (racemic) [Example 046, N-[4-(7,7-dimethyl-4-oxo-3-phenyl-4,5,6,7-tetrahydro-1H-pyrrolo[3,2-c]pyridin-2-yl)pyridin-2-yl]-2-(4-fluorophenyl)propanamide] returned an IC50 greater than 20 µM.
The molecule `CN1C(=O)c2c([nH]c(-c3ccnc(NC(=O)C(CC(F)F)c4ccc(F)cc4)c3)c2-c2ccccc2)CC12CCC2` (racemic) [Example 049, 4,4-difluoro-2-(4-fluorophenyl)-N-[4-(5′-methyl-4′-oxo-3′-phenyl-1′,4′,5′,7′-tetrahydrospiro[cyclobutane-1,6′-pyrrolo[3,2-c]pyridin]-2′-yl)pyridin-2-yl]butanamide] yielded an IC50 greater than 20 µM.
In the case of `CC(C(=O)Nc1cc(-c2[nH]c3c(c2-c2ccccc2)C(=O)N(C)C2(CCC2)C3)ccn1)c1ccc(F)cc1` (racemic) [Example 052, 2-(4-fluorophenyl)-N-[4-(5′-methyl-4′-oxo-3′-phenyl-1′,4′,5′,7′-tetrahydrospiro[cyclobutane-1,6′-pyrrolo[3,2-c]pyridin]-2′-yl)pyridin-2-yl]propanamide], the IC50 was greater than 20 µM.
`CN1CC(CC2CC2)c2[nH]c(-c3ccnc(NC(=O)Cc4ccc(F)cc4)c3)c(-c3ccccc3)c2C1=O` (racemic) [Example 055, N-{4-[7-(cyclopropylmethyl)-5-methyl-4-oxo-3-phenyl-4,5,6,7-tetrahydro-1H-pyrrolo[3,2-c]pyridin-2-yl]pyridin-2-yl}-2-(4-fluorophenyl)acetamide] gave an IC50 of 3.43 µM.
For `CC(C(=O)Nc1cc(-c2[nH]c3c(CC4CC4)cn(C)c(=O)c3c2-c2ccccc2)ccn1)c1ccc(F)cc1` (racemic) [Example 058, N-{4-[7-(cyclopropylmethyl)-5-methyl-4-oxo-3-phenyl-4,5-dihydro-1H-pyrrolo[3,2-c]pyridin-2-yl]pyridin-2-yl}-2-(4-fluorophenyl)propanamide], the half-maximal inhibitory concentration (IC50) was greater than 20 µM.
As for `Cn1cc(CC2CC2)c2[nH]c(-c3ccnc(NC(=O)C(CC(F)F)c4ccc(F)cc4)c3)c(-c3ccccc3)c2c1=O` (racemic) [Example 060, N-{4-[7-(cyclopropylmethyl)-5-methyl-4-oxo-3-phenyl-4,5-dihydro-1H-pyrrolo[3,2-c]pyridin-2-yl]pyridin-2-yl}-4,4-difluoro-2-(4-fluorophenyl)butanamide], the IC50 was greater than 20 µM.

Usually IC50 stands for the concentration needed to halve the response being measured. Read a high IC50 as a need for much substance.

Source of the values: patent US20230322767A1, “ARYL SUBSTITUTED PYRROLO-PYRIDINONES AND THERAPEUTIC USES THEREOF” (Bayer Aktiengesellschaft, priority 2020, published 2023).
